In one test the target is JAK2 (Homo sapiens, UniProt O60674). Description: in vitro JAK2 kinase activity test, Mobility Shift Assay. The class given is biochemical. Particulars: compound concentration 0.1 μM; read-out: Percentage of inhibition against JAK2 at 0.1 μM. Here is the method:
The in vitro JAK2 and FLT3 kinase activity test was performed on the compounds of the 2-aminopyrimidine backbone of the above formula I (concentration 0.1 μM) according to the present invention using Mobility Shift Assay. The control compounds Pacritinib and Fedratinib were prepared by our research group.
(§1) The kinase buffer was composed of 50 mM HEPEs (pH 7.5) and 0.0015% BRIJ-35. The stop buffer contained a mixture of 100 mM HEPES (pH 7.5), 0.015% BRIJ-35, 0.2% coating reagent #3 and 50 mM EDTA. The compound to be tested was diluted with 100% DMSO to 50 times the highest concentration required in the reaction. The dilution of compound to be tested (100 μL) was transferred to the wells of a 96-well plate. […] was added to two wells of the plate as a control group and the plate was marked as the source plate. 10 μL of compound was transferred from the source plate to a new 96-well plate to prepare an intermediate plate. In the intermediate plate, an additional 90 μL of kinase buffer was added to each well. The intermediate plate was shaken for 10 minutes, and then 5 μL of each well of the 96-well intermediate plate was copied to a 384-well plate as an analysis plate. The prepared enzyme solution was added to each well of the 384-well plate, then incubated at room temperature for 10 minutes, and then 10 μL of the prepared peptide solution (FAM-labeled peptide and ATP in kinase-based buffer) was added. The sample was incubated at 28° C. for 1 hours, and then 25 μL of buffer was added. The conversion data from the Caliper program was copied and converted to the inhibition rate.
(§2) Inhibition rate (%)=(max−conversion)/(max−min)×100.

For another test, the target named is T1, FLT3 (Homo sapiens, UniProt P36888).
T1 sequence (P36888 27-993): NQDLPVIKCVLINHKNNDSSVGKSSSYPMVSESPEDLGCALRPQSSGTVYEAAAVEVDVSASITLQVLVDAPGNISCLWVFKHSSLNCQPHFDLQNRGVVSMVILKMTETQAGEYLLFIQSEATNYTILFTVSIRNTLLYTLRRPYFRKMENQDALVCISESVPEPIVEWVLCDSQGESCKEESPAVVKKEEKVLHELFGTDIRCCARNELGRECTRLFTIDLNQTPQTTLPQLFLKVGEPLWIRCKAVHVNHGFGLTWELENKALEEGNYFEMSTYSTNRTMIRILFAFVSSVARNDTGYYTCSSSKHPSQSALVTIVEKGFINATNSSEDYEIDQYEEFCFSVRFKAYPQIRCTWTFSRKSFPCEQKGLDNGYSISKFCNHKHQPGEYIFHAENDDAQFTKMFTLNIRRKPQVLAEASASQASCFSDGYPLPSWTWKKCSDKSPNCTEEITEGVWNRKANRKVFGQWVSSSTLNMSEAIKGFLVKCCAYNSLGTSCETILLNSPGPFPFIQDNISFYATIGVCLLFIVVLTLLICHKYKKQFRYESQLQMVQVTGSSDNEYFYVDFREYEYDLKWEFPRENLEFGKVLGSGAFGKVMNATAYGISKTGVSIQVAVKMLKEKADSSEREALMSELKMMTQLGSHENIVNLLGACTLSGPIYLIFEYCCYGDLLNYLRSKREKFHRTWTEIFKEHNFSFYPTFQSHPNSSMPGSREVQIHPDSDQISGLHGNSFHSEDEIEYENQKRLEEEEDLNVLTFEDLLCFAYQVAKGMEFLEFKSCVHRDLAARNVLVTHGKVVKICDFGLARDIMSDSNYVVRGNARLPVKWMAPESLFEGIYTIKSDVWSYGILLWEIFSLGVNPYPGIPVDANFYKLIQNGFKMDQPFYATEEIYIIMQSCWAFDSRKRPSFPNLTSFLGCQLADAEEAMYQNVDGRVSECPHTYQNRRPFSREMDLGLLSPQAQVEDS
Put plainly: in vitro FLT3 kinase activity test, Mobility Shift Assay. The class given is biochemical. Particulars: compound concentration 0.1 μM; read-out: Percentage of inhibition against FLT3 at 0.1 μM. Here is the method: The in vitro JAK2 and FLT3 kinase activity test was performed on the compounds of the 2-aminopyrimidine backbone of the above formula I (concentration 0.1 μM) according to the present invention using Mobility Shift Assay.
as §1, §2

Chain of JAK2 (O60674 whole entry): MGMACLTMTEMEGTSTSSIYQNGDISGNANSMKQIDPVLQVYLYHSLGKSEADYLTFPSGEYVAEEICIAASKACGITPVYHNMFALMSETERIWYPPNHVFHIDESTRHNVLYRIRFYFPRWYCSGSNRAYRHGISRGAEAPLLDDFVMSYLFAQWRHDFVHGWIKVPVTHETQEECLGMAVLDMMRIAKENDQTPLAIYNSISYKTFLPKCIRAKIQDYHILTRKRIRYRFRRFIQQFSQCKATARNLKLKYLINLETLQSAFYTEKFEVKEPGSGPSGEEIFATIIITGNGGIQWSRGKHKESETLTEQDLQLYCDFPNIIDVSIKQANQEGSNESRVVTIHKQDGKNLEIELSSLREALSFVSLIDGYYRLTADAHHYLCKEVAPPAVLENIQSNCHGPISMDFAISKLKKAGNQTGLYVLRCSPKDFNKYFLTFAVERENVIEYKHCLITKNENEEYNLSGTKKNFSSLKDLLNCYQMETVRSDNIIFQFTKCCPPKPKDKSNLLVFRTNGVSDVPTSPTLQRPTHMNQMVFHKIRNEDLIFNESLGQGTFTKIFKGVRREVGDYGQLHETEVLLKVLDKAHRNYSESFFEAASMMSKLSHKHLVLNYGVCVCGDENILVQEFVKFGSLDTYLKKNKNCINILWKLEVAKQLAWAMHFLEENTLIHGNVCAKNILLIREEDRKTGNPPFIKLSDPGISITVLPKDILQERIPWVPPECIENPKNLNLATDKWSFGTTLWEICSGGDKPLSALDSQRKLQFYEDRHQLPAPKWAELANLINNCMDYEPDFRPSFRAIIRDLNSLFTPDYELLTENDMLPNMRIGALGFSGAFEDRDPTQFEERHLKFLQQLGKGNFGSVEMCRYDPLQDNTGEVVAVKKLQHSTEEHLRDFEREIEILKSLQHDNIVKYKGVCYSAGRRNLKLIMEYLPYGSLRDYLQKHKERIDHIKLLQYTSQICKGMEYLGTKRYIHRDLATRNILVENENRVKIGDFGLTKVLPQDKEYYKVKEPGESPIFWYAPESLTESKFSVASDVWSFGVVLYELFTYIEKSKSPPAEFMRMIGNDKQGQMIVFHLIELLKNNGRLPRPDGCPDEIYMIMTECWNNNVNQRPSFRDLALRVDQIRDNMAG

The inhibition is the change of the read-out against control, counted positive when it falls. Regarding `CNC(=O)c1ccc(NC(=O)N2CCN(c3ccnc(Nc4ccc(N5CCOCC5)cc4)n3)CC2)cc1` [Example 11, N-(4-methylcarbamoylphenyl)-4-(2-{[4-(morpholin-4-yl)phenyl]amino}pyrimidin-4-yl)piperazine-1-carboxamide], the inhibition at 0.1 µM was determined as 68.1% at JAK2 and 35.8% on FLT3.
The corresponding values for `O=C(Nc1ccccc1)N1CCN(c2ccnc(Nc3ccc(N4CCOCC4)cc3)n2)CC1` [Example 4, N-phenyl-4-(2-{[4-(morpholin-4-yl)phenyl]amino}pyrimidin-4-yl)piperazine-1-carboxamide] are 53.7% and 30.8%.
Turning to `CC(=O)c1ccc(NC(=O)N2CCN(c3ccnc(Nc4ccc(OCCCN5CCOCC5)cc4)n3)CC2)cc1` [Example 19, N-(4-acetylphenyl)-4-[2-({4-[3-(morpholin-4-yl)propoxy]phenyl}amino)pyrimidin-4-yl]piperazine-1-carboxamide], the values for the inhibition at 0.1 µM at JAK2 and at FLT3 were 60.9% and 70.9%, respectively.
`CC(=O)c1ccc(NC(=O)N2CCN(c3ccnc(Nc4ccc(OCCN5CCOCC5)cc4)n3)CC2)cc1` [Example 18, N-(4-acetylphenyl)-4-[2-({4-[2-(morpholin-4-yl)ethoxy]phenyl}amino)pyrimidin-4-yl]piperazine-1-carboxamide]: the inhibition at 0.1 µM was 61.7% at JAK2 and 70.6% at FLT3.
Turning to `CN1CCN(c2ccc(Nc3nccc(N4CCN(C(=O)Nc5ccc(C(N)=O)cc5)CC4)n3)cc2)CC1` [Example 15, N-(4-carbamoylphenyl)-4-(2-{[4-(4-methylpiperazin-1-yl)phenyl]amino}pyrimidin-4-yl)piperazine-1-carboxamide], the inhibition at 0.1 µM on JAK2 was 84%; on FLT3, 85%.
The corresponding values for `CC(=O)c1ccc(NC(=O)N2CCN(c3ccnc(Nc4ccc(OCCN5CCCC5)cc4)n3)CC2)cc1` [Example 16, N-(4-acetylphenyl)-4-[2-({4-[2-(pyrrolidin-1-yl)ethoxy]phenyl}amino)pyrimidin-4-yl]piperazine-1-carboxamide] are 45% and 69%.
The corresponding values for `NS(=O)(=O)c1ccc(NC(=O)N2CCN(c3ccnc(Nc4ccc(N5CCOCC5)cc4)n3)CC2)cc1` [Example 12, N-(4-aminosulfonylphenyl)-4-(2-{[4-(morpholin-4-yl)phenyl]amino}pyrimidin-4-yl)piperazine-1-carboxamide] are 76% and 69.7%.
For `O=C(Nc1ccc(OC(F)(F)F)cc1)N1CCN(c2ccnc(Nc3ccc(N4CCOCC4)cc3)n2)CC1` [Example 2, N-(4-trifluoromethoxyphenyl)-4-(2-{[4-(morpholin-4-yl)phenyl]amino}pyrimidin-4-yl)piperazine-1-carboxamide], the figures for the inhibition at 0.1 µM on JAK2 and at FLT3 were 54.3% and 30.5%, respectively.
In the same order, the values of `CC(=O)c1ccc(NC(=O)N2CCC(Nc3nc(Nc4ccc(N5CCOCC5)cc4)ncc3C)C2)cc1` (stereo not shown) [Example 28, N-(4-acetylphenyl)-3-[(5-methyl-2-{[4-(morpholin-4-yl)phenyl]amino}pyrimidin-4-yl)amino]pyrrolidine-1-carboxamide] are 69.3% and 57.3%.
The corresponding values for `NC(=O)c1ccc(NC(=O)N2CCN(c3ccnc(Nc4ccc(N5CCOCC5)cc4)n3)CC2)cc1` [Example 10, N-(4-carbamoylphenyl)-4-(2-{[4-(morpholin-4-yl)phenyl]amino}pyrimidin-4-yl)piperazine-1-carboxamide] are 76.3% and 71.2%.
In the same order, the values of `CC(=O)c1ccc(NC(=O)N2CCN(c3nc(Nc4ccc(N5CCOCC5)cc4)ncc3N)CC2)cc1` [Example 27, N-(4-acetylphenyl)-4-(5-amino-2-{[4-(morpholin-4-yl)phenyl]amino}pyrimidin-4-yl)piperazine-1-carboxamide] are 22.8% and 67.9%.
Regarding `COc1ccc(NC(=O)N2CCN(c3ccnc(Nc4ccc(N5CCOCC5)cc4)n3)CC2)cc1` [Example 1, N-(4-methoxyphenyl)-4-(2-{[4-(morpholin-4-yl)phenyl]amino}pyrimidin-4-yl)piperazine-1-carboxamide], the results for the inhibition at 0.1 µM at JAK2 and at FLT3 were 48.7% and 21.7%, respectively.
Regarding `CC(=O)c1ccc(NC(=O)NC2CCN(c3nc(Nc4ccc(N5CCOCC5)cc4)ncc3C)C2)cc1` (stereo not shown) [Example 29, 1-(4-acetylphenyl)-3-[1-(5-methyl-2-{[4-(morpholin-4-yl)phenyl]amino}pyrimidin-4-yl)pyrrolidin-3-yl]urea], the inhibition at 0.1 µM at JAK2 turned out to be 57.4%; at FLT3 it was 75.7%.
As to `N#Cc1ccc(NC(=O)N2CCN(c3ccnc(Nc4ccc(N5CCOCC5)cc4)n3)CC2)cc1F` [Example 8, N-(4-cyano-3-fluorophenyl)-4-(2-{[4-(morpholin-4-yl)phenyl]amino}pyrimidin-4-yl)piperazine-1-carboxamide], the inhibition at 0.1 µM at JAK2 stood at 63.7%; on FLT3 it was 70.3%.
The corresponding values for `CC(=O)c1ccc(NC(=O)N2CCN(c3ccnc(Nc4ccc(N5CCC(C)CC5)cc4)n3)CC2)cc1` [Example 17, N-(4-acetylphenyl)-4-(2-{[4-(4-methylpiperidin-1-yl)phenyl]amino}pyrimidin-4-yl)piperazine-1-carboxamide] are 53% and 54%.
The corresponding values for `CC(=O)c1ccc(NC(=O)NC2CN(c3nc(Nc4ccc(N5CCOCC5)cc4)ncc3C)C2)cc1` [Example 31, 1-(4-acetylphenyl)-3-[1-(5-methyl-2-{[4-(morpholin-4-yl)phenyl]amino}pyrimidin-4-yl)azetidin-3-yl]urea] are 21.9% and 50%.
With `COC(=O)c1ccc(NC(=O)N2CCN(c3ccnc(Nc4ccc(N5CCOCC5)cc4)n3)CC2)cc1` [Example 5, N-(4-methoxyformylphenyl)-4-(2-{[4-(morpholin-4-yl)phenyl]amino}pyrimidin-4-yl)piperazine-1-carboxamide], the inhibition at 0.1 µM at JAK2 was 64.4%; at FLT3 it was 62.8%.
With `O=C(Nc1ccc([N+](=O)[O-])cc1)N1CCN(c2ccnc(Nc3ccc(N4CCOCC4)cc3)n2)CC1` [Example 7, N-(4-nitrophenyl)-4-(2-{[4-(morpholin-4-yl)phenyl]amino}pyrimidin-4-yl)piperazine-1-carboxamide], the figures for the inhibition at 0.1 µM on JAK2 and on FLT3 were 79.3% and 84.4%, respectively.
The corresponding values for `CCc1ccc(NC(=O)N2CCN(c3ccnc(Nc4ccc(N5CCOCC5)cc4)n3)CC2)cc1` [Example 3, N-(4-ethylphenyl)-4-(2-{[4-(morpholin-4-yl)phenyl]amino}pyrimidin-4-yl)piperazine-1-carboxamide] are 53.3% and 27.4%.
In the same order, the values of `CC(=O)Nc1ccc(NC(=O)N2CCN(c3ccnc(Nc4ccc(N5CCOCC5)cc4)n3)CC2)cc1` [Example 13, N-(4-acetylaminophenyl)-4-(2-{[4-(morpholin-4-yl)phenyl]amino}pyrimidin-4-yl)piperazine-1-carboxamide] are 73% and 70.8%.
